Values quoted from earlier work as cited in patent publication US6235494A, “Substrates for assessing mannan-binding protein-associated serine protease activity and methods using the substrates” (The Scripps Research Institute, priority 1999, dated 2001).

Assays:
[1] = test system: kallikrein (plasma and pancreatic)
alternative pathway [2] = test system: alternative pathway
classical pathway [3] = test system: classical pathway
[4] = test system: complement activation (C3a and C4a); details: normal individuals
classical pathway [5] = test system: classical pathway; remark: listed apart in the source
alternative pathway [6] = test system: alternative pathway; remark: listed apart in the source

CS(=O)(=O)O.CS(=O)(=O)O.N=C(N)Nc1ccc(C(=O)Oc2ccc3cc(C(=N)N)ccc3c2)cc1 [Futhan, 6-amidino-2-naphthyl p-guanidinobenzoate dimethanesulfonate]
inhibition of kallikrein (plasma and pancreatic) [1]: inhibits
effective toward Factor Xa (Factor Xa): sub-micromolar level
effective toward Hageman factor (Hageman factor): sub-micromolar level
inhibition of complement-mediated hemolysis by the alternative pathway (alternative pathway [2]): inhibits
complement proteinase target C1s (C1s): complement proteinase targets
inhibition of plasmin (plasmin): inhibits
complement proteinase target Factor D (Factor D): complement proteinase targets
inhibition of thrombin (thrombin): inhibits
inhibition of complement-mediated hemolysis by the classical pathway (classical pathway [3]): inhibits
complement proteinase target C1r (C1r): complement proteinase targets
complement proteinase target Factor B (Factor B): complement proteinase targets
inhibition of MASP activity (MASP): inhibits MASP
MASP activity (MASP; in EDTA): no MASP activity is observed
stabilization of freshly drawn blood samples [4]: effectively stabilizes freshly drawn blood samples

O=C(O)CN(CCN(CC(=O)O)CC(=O)O)CC(=O)O [EDTA, ethylened laminetetraacetic acid]
C4a generated upon addition of EDTA (C4a; benzamidine-containing whole blood, EDTA added): high levels of C4a are generated

N=C(N)c1ccccc1 [benzamidine]
block of the classical pathway (classical pathway [5]): blocks
block of the alternative pathway (alternative pathway [6]): blocks
inhibition of MASP activity (MASP): does not inhibit MASP activity
block of the coagulation pathway (coagulation pathway): blocks
C4a generated in whole blood (C4a; benzamidine added, before EDTA): no C4a generated
